Experimental findings from article PMC9537541, “Synthesis and anticancer activity of new benzensulfonamides incorporating s-triazines as cyclic linkers for inhibition of carbonic anhydrase IX” (Scientific Reports, 2022) are described below.

By melting point is commonly meant the temperature of the solid-liquid transition. Usually Ki stands for the dissociation constant of the complex between target and ligand, obtained from inhibition or displacement. Low values mean a stronger hold on the target, high ones a looser hold on the target.

Structures are written as SMILES. Structures can show the parent of a compound that is named as a salt.

One series relates to Leukemia (SR). In words: NCI single dose SRB screen, SR. The class given is cell-based. The settings on record: 48 h, 10^−5 M single dose, read-out: GI% Leukemia (SR). The procedure: (§1) Target compounds in series (A) and (B), were submitted to the National Cancer Institute (NCI) Developmental Therapeutic Program (www.dtp.nci.nih.gov), where they have been assessed, in vitro for their anticancer activity. Two series (A) and (B), were screened in a single dose (10 µM) versus full panel composed of 60 cancer cell lines, in accordance with protocol of drug evaluation branch, NCI, Bethesda. Sulforhodamine B (SRB) colorimetric assay was used to determine cell growth and viability,[40].
(§2) Protocol of Drug Evaluation Branch, NCI, Bethesda, was adopted in the antitumor assay. Assessment of cell growth and viability was carried out utilizing SRB assay and 48 h drug exposure protocol as previously reported,[40].

The target of a further series is T1, hCA IX (Homo sapiens, UniProt Q16790).
T1 construct: made in house
In words: stopped-flow CO2 hydrase assay, hCA IX. The format is biochemical. The note with it: for Selectivity index (SI) I/IX: hCA IX over off-target hCA I; for Selectivity index (SI) II/IX: hCA IX over off-target hCA II; for Ki: stopped flow technique, mean from 3 different assays. The procedure: (§3) Target compounds of series (A) and (B) were screened as inhibitors concerning the physiologically relevant hCAs; cytosolic isoforms (hCA I and II) in addition to the transmembrane tumor related isoforms (hCA IX and XII) via a stopped-flow assay of carbonic anhydrase catalyzed CO2 hydration. Acetazolamide (AAZ), CA I drug, was also incorporated in the assays as a standard drug. […] Four CA isoforms inhibition activity was measured by assaying CA catalyzed CO2 hydration via an applied photophysics stopped-flow instrument. PRISM 3 and the Cheng-prusoff equation were used to determine the inhibition constant by non-linear least square methods as reported, and represent the mean from three different determination at least. All tested carbonic anhydrase isoforms were recombinant proteins prepared in lab as described earlier,[57].

Series [1] relates to Breast cancer (MDA-MB-468). In words: NCI single dose SRB screen, MDA-MB-468. The note with it: Homo sapiens, MDA-MB-468, 48 h, 10^−5 M single dose, 48 h, SRB; read-out: GI% Breast cancer (MDA-MB-468). The format is cell-based. The procedure: as §1, §2
The test system of a further series is CNS cancer (SNB-75). In words: NCI single dose SRB screen, SNB-75. The format is cell-based. The settings on record: Homo sapiens, SNB-75, 48 h, 10^−5 M single dose, read-out: GI% CNS cancer (SNB-75). Here is the method: as §1, §2
The subject of the next series is Renal cancer (UO-31). The series can be described thus: NCI single dose SRB screen, UO-31. The class given is cell-based. The note with it: Homo sapiens, UO-31, 48 h, 10^−5 M single dose, read-out: GI% Renal cancer (UO-31). The procedure:
as §1, §2

The target of a further series is T2, hCA XII (Homo sapiens, UniProt O43570).
T2 construct: made in house
The series can be described thus: stopped-flow CO2 hydrase assay, hCA XII. The class given is biochemical. The note with it: for Selectivity index (SI) I/XII: hCA XII over off-target hCA I; for Selectivity index (SI) II/XII: hCA XII over off-target hCA II; for Ki: stopped flow technique, mean from 3 different assays. The procedure:
as §3

Another series concerns the target T3, hCA II (Homo sapiens, UniProt P00918).
T3 construct: made in house
In words: stopped-flow CO2 hydrase assay, hCA II. The class given is biochemical. The note with it: stopped flow technique, mean from 3 different assays. Here is the method: as §3

Another series has as its target T4, hCA I (Homo sapiens, UniProt P00915).
T4 construct: made in house
In words: stopped-flow CO2 hydrase assay, hCA I. The format is biochemical. The note with it: stopped flow technique, mean from 3 different assays. Here is the method:
as §3

T4 sequence (P00915 whole entry): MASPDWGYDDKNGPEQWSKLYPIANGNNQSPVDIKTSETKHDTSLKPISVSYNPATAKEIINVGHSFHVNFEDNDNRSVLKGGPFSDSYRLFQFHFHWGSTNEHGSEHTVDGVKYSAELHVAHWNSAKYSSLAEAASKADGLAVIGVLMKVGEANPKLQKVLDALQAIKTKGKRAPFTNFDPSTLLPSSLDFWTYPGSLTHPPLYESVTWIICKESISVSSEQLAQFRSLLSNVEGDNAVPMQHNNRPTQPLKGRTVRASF
T2 sequence (O43570 25-354): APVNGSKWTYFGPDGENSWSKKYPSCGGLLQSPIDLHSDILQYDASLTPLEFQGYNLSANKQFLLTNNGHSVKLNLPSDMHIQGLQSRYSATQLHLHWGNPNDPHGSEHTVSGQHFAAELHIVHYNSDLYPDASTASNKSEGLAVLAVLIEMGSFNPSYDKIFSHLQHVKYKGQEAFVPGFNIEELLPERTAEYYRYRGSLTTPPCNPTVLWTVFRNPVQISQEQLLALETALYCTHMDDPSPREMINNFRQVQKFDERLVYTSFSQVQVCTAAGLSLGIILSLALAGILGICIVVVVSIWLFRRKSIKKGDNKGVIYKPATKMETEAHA

As to `CC1(C)N=C(N)N=C(N)N1c1ccc(S(=O)(=O)Nc2nccs2)cc1` (as salt: HCl) [Compound 5c, 4-(4,6-Diamino-2,2-dimethyl-1,2-dihydro-1,3,5-triazin-1-yl)-N-(thiazol-2-yl)benzene-1-sulfonamide.HCl], the melting point lay in the range of 216 to 218 °C.
Turning to `NC1=NC2(CCCC2)N(c2ccc(S(N)(=O)=O)cc2)C(N)=N1` (as salt: HCl) [Compound 6a, 4-(7,9-Diamino-6,8,10-triazaspiro[4.5]deca-7,9-dien-6-yl) benzene-1-sulfonamide HCl], the melting point lay in the range of 240 to 241 °C.
Consider `CC1(C)N=C(N)N=C(N)N1c1ccc(S(N)(=O)=O)cc1` [Compound 5a, 4-(4,6-Diamino-1-phenyl-1,2-dihydro-2,2-dimethyl-1,3,5-triazin-1-yl) benzene-1-sulfonamide HCl], for which the inhibition at 10 µM is at most 10% with Leukemia (SR), at most 10% in series [1], 29% in the series on CNS cancer (SNB-75) and at most 10% in the series on Renal cancer (UO-31). The “Selectivity index (SI) I/IX” value at hCA IX stood at 6.7. The “Selectivity index (SI) II/IX” value on hCA IX came to 6.8. For the same compound, the Ki turned out to be 0.135 µM at hCA IX, 3.52 µM on hCA XII, 0.913 µM on hCA II and 0.884 µM at hCA I. The “Selectivity index (SI) I/XII” value at hCA XII is listed as 0.3. In addition, the “Selectivity index (SI) II/XII” value at hCA XII is given as 0.2.
As to `CC1(C)N=C(N)N=C(N)N1c1ccc(S(=O)(=O)Nc2nccs2)cc1` [Compound 5c, 4-(4,6-Diamino-2,2-dimethyl-1,2-dihydro-1,3,5-triazin-1-yl)-N-(thiazol-2-yl)benzene-1-sulfonamide.HCl], the inhibition at 10 µM is at most 10% with Leukemia (SR), at most 10% in [1], 35% in the series on CNS cancer (SNB-75) and 11% with Renal cancer (UO-31). Also, the inhibition constant (Ki) on hCA IX, at hCA XII, at hCA II and on hCA I was above 10 µM in each case.
`NC1=NC2(CCCC2)N(c2ccc(S(N)(=O)=O)cc2)C(N)=N1` [Compound 6a, 4-(7,9-Diamino-6,8,10-triazaspiro[4.5]deca-7,9-dien-6-yl) benzene-1-sulfonamide HCl]: the inhibition at 10 µM with Leukemia (SR) is 13%; in [1], 18%; in the series on CNS cancer (SNB-75) it was at most 10%; with Renal cancer (UO-31) it was 19%. Further, the “Selectivity index (SI) I/IX” value on hCA IX is 0.6. Besides, the “Selectivity index (SI) II/IX” value at hCA IX is on record as 0.8. For the same compound, the Ki on hCA IX was found to be 1.06 µM; at hCA XII, 5.34 µM; on hCA II it was 0.832 µM; at hCA I, 0.628 µM. Also, the “Selectivity index (SI) I/XII” value at hCA XII is 0.1. Further, the “Selectivity index (SI) II/XII” value at hCA XII was determined as 0.2.
`NC1=NC2(CCCCC2)N(c2ccc(S(N)(=O)=O)cc2)C(N)=N1` [Compound 6b, 4-(2,4-Diamino-1,3,5-triazaspiro[5.5]undeca-2,4-dien-1-yl)benzene-1-sulfonamide.HCl]: the inhibition at 10 µM with Leukemia (SR) was at most 10%; in [1] it was at most 10%; in the series on CNS cancer (SNB-75) it was 28%; in the series on Renal cancer (UO-31), at most 10%. In addition, the “Selectivity index (SI) I/IX” value on hCA IX was 0.4. The “Selectivity index (SI) II/IX” value at hCA IX is given as 0.8. Further, the inhibitory constant (Ki) is 1.16 µM at hCA IX, 4.85 µM on hCA XII, 0.915 µM on hCA II and 0.437 µM at hCA I. Moreover, the “Selectivity index (SI) I/XII” value on hCA XII was determined as 0.1. For the same compound, the “Selectivity index (SI) II/XII” value at hCA XII was determined as 0.2.
Turning to `CC1CCC2(CC1)N=C(N)N=C(N)N2c1ccc(S(N)(=O)=O)cc1` (stereo not drawn) [Compound 6c, 4-(2,4-Diamino-9-methyl-1,3,5-triazaspiro[5.5]undeca-2,4-dien-1-yl)benzene-1-sulfonamide.HCl], the inhibition at 10 µM with Leukemia (SR) was at most 10%; in [1], at most 10%; in the series with CNS cancer (SNB-75) it was 21%; with Renal cancer (UO-31), 16%. On hCA IX, the “Selectivity index (SI) I/IX” value came to 0.1. Further, at hCA IX, the “Selectivity index (SI) II/IX” value turned out to be 0.1. The Ki is 1.85 µM at hCA IX, 4.91 µM at hCA XII, 0.179 µM on hCA II and 0.145 µM on hCA I. In addition, the “Selectivity index (SI) I/XII” value at hCA XII stood at 0.02. Moreover, the “Selectivity index (SI) II/XII” value at hCA XII is given as 0.04.
Turning to `NC1=NC2(CCCC2)N(c2ccc(S(=O)(=O)Nc3ccccn3)cc2)C(N)=N1` [Compound 6d, 4-(7,9-Diamino-6,8,10-triazaspiro[4.5]deca-7,9-dien-6-yl}-N-(pyridin-2-yl)benzene-1-sulfonamide.HCl], the inhibition at 10 µM in the series with Leukemia (SR) is at most 10%; in series [1] it was at most 10%; in the series on CNS cancer (SNB-75), 30%; in the series with Renal cancer (UO-31) it was 12%. Moreover, the inhibition constant (Ki) on hCA IX, on hCA XII, on hCA II and on hCA I was above 10 µM in each case.
In the case of `NC1=NC2(CCCCC2)N(c2ccc(S(=O)(=O)Nc3ccccn3)cc2)C(N)=N1` [Compound 6e, 4-(2,4-Diamino-1,3,5-triazaspiro[5.5]undeca-2,4-dien-1-yl)-N-(pyridin-2-yl)benzene-1-sulfonamide.HCl], the inhibition at 10 µM in the series on Leukemia (SR) was at most 10%; in series [1] it was at most 10%; in the series on CNS cancer (SNB-75), at most 10%; in the series with Renal cancer (UO-31) it was 11%. Besides, the inhibition constant (Ki) at hCA IX, on hCA XII, at hCA II and at hCA I was above 10 µM throughout.
Regarding `CC1CCC2(CC1)N=C(N)N=C(N)N2c1ccc(S(=O)(=O)Nc2ccccn2)cc1` (stereo not drawn) [Compound 6f., 4-(2,4-Diamino-9-methyl-1,3,5-triazaspiro[5.5]undeca-2,4-dien-1-yl)-N-(pyridin-2-yl)benzene-1-sulfonamide.HCl], the inhibition at 10 µM with Leukemia (SR) was at most 10%; in series [1], at most 10%; in the series with CNS cancer (SNB-75), 23%; in the series with Renal cancer (UO-31) it was 11%. Further, the Ki on hCA IX, at hCA XII, at hCA II and at hCA I was above 10 µM throughout.
Take `NC1=NC2(CCCCCC2)N(c2ccc(S(=O)(=O)Nc3ccccn3)cc2)C(N)=N1` [Compound 6g, 4-(2,4-Diamino-1,3,5-triazaspiro[5.6]dodeca-2,4-dien-1-yl)-N-(pyridin-2-yl)benzene-1-sulfonamide.HCl]: the inhibition at 10 µM was at most 10% with Leukemia (SR), at most 10% in series [1], 33% in the series with CNS cancer (SNB-75) and 14% in the series with Renal cancer (UO-31). In addition, the Ki at hCA IX, at hCA XII, on hCA II and at hCA I was above 10 µM throughout.
For `NC1=NC2(CCCC2)N(c2ccc(S(=O)(=O)Nc3nccs3)cc2)C(N)=N1` [Compound 6h, 4-{7,9-Diamino-6,8,10-triazaspiro[4.5]deca-7,9-dien-6-yl}-N-(1,3-thiazol-2-yl)benzene-1-sulfonamide.HCl], the inhibition at 10 µM with Leukemia (SR) was at most 10%; in [1], at most 10%; with CNS cancer (SNB-75), at most 10%; with Renal cancer (UO-31), 17%. Besides, the inhibitory constant (Ki) at hCA IX, on hCA XII, on hCA II and at hCA I was above 10 µM throughout.
On to `NC1=NC2(CCCCC2)N(c2ccc(S(=O)(=O)Nc3nccs3)cc2)C(N)=N1` [Compound 6i, 4-(2,4-Diamino-1,3,5-triazaspiro[5.5]undeca-2,4-dien-1-yl)-N-(1,3-thiazol-2-yl)benzene-1-sulfonamide.HCl], for which the inhibition at 10 µM with Leukemia (SR) is at most 10%; in series [1], at most 10%; in the series on CNS cancer (SNB-75) it was at most 10%; with Renal cancer (UO-31), 14%. Also, the inhibition constant (Ki) at hCA IX, on hCA XII, on hCA II and on hCA I was above 10 µM each time.
On to `CC1CCC2(CC1)N=C(N)N=C(N)N2c1ccc(S(=O)(=O)Nc2nccs2)cc1` (stereo not drawn) [Compound 6j, 4-(2,4-Diamino-9-methyl-1,3,5-triazaspiro[5.5]undeca-2,4-dien-1-yl)-N-(1,3-thiazol-2-yl)benzene-1-sulfonamide.HCl], for which the inhibition at 10 µM with Leukemia (SR) was at most 10%; in [1], at most 10%; in the series on CNS cancer (SNB-75), 29%; in the series on Renal cancer (UO-31), 17%. The Ki on hCA IX, at hCA XII, at hCA II and at hCA I was above 10 µM each time.
